Reference: US9457033B2, “Steroid alkaloids and uses thereof as antimicrobial agents against electron transport-deficient microbes and as potentiators for antimicrobial agents against pathogenic bacteria” (priority 2011, dated 2016)
Values after ≈ are worked out from the molar mass of the structure shown. Where two headings read alike, the source gives them in different places.

What was measured:
Format in all cases: cell-based, Staphylococcus aureus
[1] = tested on: S. aureus ATCC 29213; assay: MIC, microdilution in CAMHB 24 h, with or without tomatidine/compound; conditions: for MIC: Staphylococcus aureus; for Fold (MIC of GEN alone/MIC of GEN with Cpd): gentamicin with 8 μg/ml of Cpd, provided in categories of synergy (1-2 no or mild; 4-16 moderate or strong)
[2] = tested on: S. aureus ATCC 29213; assay: Checkerboard assay, aminoglycoside and tomatidine; conditions: for Aminoglycoside MIC: checkerboard
Method: This checkerboard protocol (Eliopoulos and Moellering, 1996) was conducted by a microdilution method similar to that use for standard MICs determination. In 96 wells plates, antibiotics were loaded at a 4× concentration (where X is the maximal tested concentration) in well A1 and at a 2× concentration in the others wells of the column 1. Antibiotics were serially diluted 1:1 from the column 2 to column 10. […] Wells A12, B12, […] are positive untreated controls whereas wells […] are negative non-inoculated controls. […] The FIC index was calculated as follow (Eliopoulos and Moellering, 1996): FIC […]/MICB, where A and B are MICs of compounds A and B in combination and where MICA and MICB are the MICs of compound A alone and of compound B alone, respectively, and FICA and FICB are the FICs of compound A and of compound B, respectively.

[3] = tested on: S. aureus SCV strain NewbouldΔhemB; assay: MIC of compounds against SCV; conditions: for MIC: Staphylococcus aureus, read-out: MIC of Cpd against SCV hemB; for MIC of Cpd against SCV hemB: provided in categories (strong ≦ 0.5; moderate 4-8; low > 8)
[4] = ATCC29213, compound alone, read-out: MIC of Cpd against ATCC29213
[5] = ATCC29213, read-out: MIC of Cpd against ATCC29213

Row | Molecule | Fold (MIC of GEN alone/MIC of GEN with Cpd) [1] | MIC [3] [µg/mL] | MIC of Cpd against ATCC29213 ([1]; compound alone) [µg/mL] | MIC of Cpd against SCV hemB [3] | other results
1 | NCC[C@H](O)C(=O)N[C@@H]1C[C@H](N)[C@@H](O[C@H]2O[C@H](CN)[C@@H](O)[C@H](O)[C@H]2O)[C@H](O)[C@H]1O[C@H]1O[C@H](CO)[C@@H](O)[C@H](N)[C@H]1O [Amikacin, amikacin] | – | – | – | – | MIC −TO ([1]; ATCC 29213, absence of tomatidine): 2 µg/mL (≈ 3.42 µM); MIC +TO ([1]; ATCC 29213, presence of tomatidine at 8 μg/ml): 0.5 µg/mL; Fold (−TO/+TO) ([1]; ATCC 29213, tomatidine at 8 μg/ml): 4 fold; FIC index ([2]; aminoglycoside with tomatidine, tomatidine MIC considered 32 μg/ml, values overestimated): ≦0.133; Aminoglycoside MIC ([2]; tomatidine 0 μg/ml): 2 µg/mL; Aminoglycoside MIC ([2]; tomatidine 0.06 μg/ml): 2 µg/mL; Aminoglycoside MIC ([2]; tomatidine 0.12 μg/ml): 0.5 µg/mL; Aminoglycoside MIC ([2]; tomatidine 0.25 μg/ml): 0.25 µg/mL; Aminoglycoside MIC ([2]; tomatidine 0.5 μg/ml): 0.25 to 0.5 µg/mL; Aminoglycoside MIC ([2]; tomatidine 1 μg/ml): 0.25 to 1 µg/mL; Aminoglycoside MIC ([2]; tomatidine 2 μg/ml): 0.25 to 1 µg/mL; Aminoglycoside MIC ([2]; tomatidine 4 μg/ml): 0.25 µg/mL; Aminoglycoside MIC ([2]; tomatidine 8 μg/ml): 0.5 µg/mL
2 | CC(N)[C@H]1CC[C@H]2[C@@H]3CC[C@H]4C[C@@H](O)CC[C@]4(C)[C@H]3CC[C@]12C (stereo partly drawn) [Compound 30a, pregnan-3β-ol-20-amine] | 1-2 fold | > 8 | – | – | MIC [1, 4]: > 16 µg/mL
3 | CN(C)CC(=O)[C@H]1CC[C@H]2[C@@H]3CC[C@H]4C[C@@H](O)CC[C@]4(C)[C@H]3CC[C@]12C [Compound 47, N,N-dimethyl-21-aminopregnanolone] | 1-2 fold | > 8 | – | – | MIC [1, 5]: > 16 µg/mL
4 | pregnan-3β-ol-20-(aminobutyl)amine hydrochloride Salt [Compound 44] | 1-2 fold | – | >16 | >8 µg/mL | –
5 | Solasodan | 1-2 fold | – | >16 | >8 µg/mL | –
6 | C[C@H]1CC[C@]2(NC1)O[C@@]1(C)C[C@@]3(C)[C@@H]4CC[C@@]5(C)C[C@@H](O)CC[C@]5(C)[C@@]4(C)CC[C@]3(C)[C@@]1(C)[C@@H]2C.O=C(O)CC(O)(CC(=O)O)C(=O)O [Compound 58, tomatidine citrate] | 4-16 fold | ≤ 0.5 | – | – | MIC [1, 5]: > 16 µg/mL
7 | CS(=O)(=O)O.C[C@H]1CC[C@]2(NC1)O[C@H]1C[C@H]3[C@@H]4CC[C@H]5C[C@@H](O)CC[C@]5(C)[C@H]4CC[C@]3(C)[C@H]1[C@@H]2C [Compound 57, tomatidine methanesulfonate] | 4-16 fold | – | >16 | ≦0.5 μg/ml | –
8 | pregnan-3β-ol-20-(aminopropyl)amine hydrochloride Salt [Compound 43] | 1-2 fold | – | >16 | 4 to 8 µg/mL | –
9 | CC(NCCCN(C)C)[C@H]1CC[C@H]2[C@@H]3CC[C@H]4C[C@@H](O)CC[C@]4(C)[C@H]3CC[C@]12C (stereo partly drawn) [Compound 32, pregnan-3β-ol-20-((N,N-dimethylamino)propyl)amine] | 4-16 fold | > 8 | – | – | MIC [1, 4]: > 16 µg/mL
10 | C[C@H](CN)CCC[C@@H](C)C1[C@@H](O)C[C@H]2[C@@H]3CC[C@H]4C[C@@H](O)CC[C@]4(C)[C@H]3CC[C@]12C (stereo partly shown) [Compound 26] | 4-16 fold | ≤ 0.5 | – | – | MIC [1, 5]: > 16 µg/mL
11 | CC(O)[C@H]1CC[C@H]2[C@@H]3CC[C@H]4C[C@@H](O)CC[C@]4(C)[C@H]3CC[C@]12C (stereo in doubt) [Compound 54, pregnane-3,20-diol] | 1-2 fold | > 8 | – | – | MIC [1, 4]: > 16 µg/mL
